Tests used:
CDK2 = target: T1, CDK2 (Homo sapiens, UniProt P24941); assay: CDK2 HiBiT assay (degradation, Dmax); type: cell-based; details: HEK293 clonal lines with CRISPR KI HiBiT tag on CDK2, stably expressing LgBiT; 24 hours incubation
T1 construct: HEK293 clonal lines with CRISPR KI HiBiT tag on CDK2 proteins; host or cells: HEK293 clonal line with CRISPR knock-in HiBiT on CDK2, stably expressing LgBiT
Description: HEK293 clonal lines with CRISPR KI HiBiT tag on CDK2 proteins and stably expressing LgBiT protein were obtained from Promega (Madison, WI). Cells were plated at 5000 cells per well using Multiflo (BioTek) in 384-well white solid bottom plates (Corning, 3570BC) in 25 ul volume in DMEM media (DMEM, high glucose, HEPES, no phenol red (ThermoFisher Scientific, 21063029)) containing 10% FBS (Corning, 35-075-CV), 1% Penicillin/Streptomycin (ThermoFisher Scientific, 15140-122). Cells were incubated for 16 hours at 37° C., 5% CO2. 75 nL of a compound at 30 μM were dosed into the plate using an Echo® 650 liquid handler (Labcyte). Cells were incubated at 37° C., 5% CO2 for 24 hours. 5 ul of HiBiT Lysis Reagent (Promega, N3030) is added using Combi Multidrop (ThermoFisher Scientific), plates are incubated for 15′ at 37° C., 5% CO2 and then signal was read on a Pherastar FSX using “LUM plus” optic module.
Analysis was performed in Scinamic (Scinamic, Cambridge, MA). Luminescence response (R) was calculated by the formula: response=100*(S−N)/(P−N) where S is the signal of the well, N and P the mean negative and positive control values respectively of the same plate. The luminescence response was then fitted in Scinamic using a 3-parameter agonist logistic fit (hillslope=1, EC50>0, top/bottom unconstrained).

CRBN-DDB1 = CRBN-DDB1 (Homo sapiens, UniProt Q96SW2); assay: Compound binding to CRBN by HTRF assay; details: CRBN-DDB1 2.5 nM, Cy5-Thalidomide 100 nM probe; Ki from geometric mean of IC50 by Cheng-Prustoff transformation
CRBN-DDB1, sequence (Q96SW2 whole entry): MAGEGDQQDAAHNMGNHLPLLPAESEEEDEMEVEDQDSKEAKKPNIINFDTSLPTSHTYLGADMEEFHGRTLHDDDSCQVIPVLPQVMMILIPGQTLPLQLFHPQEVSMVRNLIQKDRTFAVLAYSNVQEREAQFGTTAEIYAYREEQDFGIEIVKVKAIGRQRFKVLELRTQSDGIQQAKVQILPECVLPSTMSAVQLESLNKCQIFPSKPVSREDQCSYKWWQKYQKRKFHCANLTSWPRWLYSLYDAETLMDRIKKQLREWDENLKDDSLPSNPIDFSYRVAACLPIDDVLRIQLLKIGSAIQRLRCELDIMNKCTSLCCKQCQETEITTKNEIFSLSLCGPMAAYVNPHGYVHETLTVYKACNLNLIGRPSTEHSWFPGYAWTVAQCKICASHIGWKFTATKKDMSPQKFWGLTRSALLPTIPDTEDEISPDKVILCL
CRBN-DDB1, sequence (Q16531 whole entry partner): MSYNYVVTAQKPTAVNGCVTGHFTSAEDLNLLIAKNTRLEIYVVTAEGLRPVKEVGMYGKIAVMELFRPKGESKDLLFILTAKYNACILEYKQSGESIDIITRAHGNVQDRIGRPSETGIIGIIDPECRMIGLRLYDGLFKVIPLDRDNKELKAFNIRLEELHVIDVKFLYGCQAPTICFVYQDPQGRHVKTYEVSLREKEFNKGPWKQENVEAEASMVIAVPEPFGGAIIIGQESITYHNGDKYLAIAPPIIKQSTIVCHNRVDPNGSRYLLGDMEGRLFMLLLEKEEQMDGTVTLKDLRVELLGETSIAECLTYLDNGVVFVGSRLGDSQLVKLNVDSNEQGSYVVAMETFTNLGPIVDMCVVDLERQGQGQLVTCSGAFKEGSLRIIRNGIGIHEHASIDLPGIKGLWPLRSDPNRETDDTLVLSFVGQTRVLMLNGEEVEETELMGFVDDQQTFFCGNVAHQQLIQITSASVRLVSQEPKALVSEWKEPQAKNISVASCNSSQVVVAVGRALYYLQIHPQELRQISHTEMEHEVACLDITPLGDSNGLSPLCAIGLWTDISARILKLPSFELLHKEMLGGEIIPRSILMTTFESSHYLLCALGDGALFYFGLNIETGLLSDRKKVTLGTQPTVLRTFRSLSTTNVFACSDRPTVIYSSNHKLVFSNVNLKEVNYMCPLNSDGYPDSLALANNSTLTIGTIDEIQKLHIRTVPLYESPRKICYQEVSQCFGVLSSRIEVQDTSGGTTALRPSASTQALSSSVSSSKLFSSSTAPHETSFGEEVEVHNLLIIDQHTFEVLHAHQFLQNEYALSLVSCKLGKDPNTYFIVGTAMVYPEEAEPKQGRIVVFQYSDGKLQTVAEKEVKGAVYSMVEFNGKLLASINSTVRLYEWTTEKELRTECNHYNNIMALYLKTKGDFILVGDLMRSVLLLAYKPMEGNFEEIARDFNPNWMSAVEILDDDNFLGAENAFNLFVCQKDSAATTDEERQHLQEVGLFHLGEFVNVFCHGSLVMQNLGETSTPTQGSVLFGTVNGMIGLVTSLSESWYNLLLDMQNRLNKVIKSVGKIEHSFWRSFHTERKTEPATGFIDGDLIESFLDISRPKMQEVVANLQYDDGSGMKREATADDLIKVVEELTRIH
Description: Compound activity was monitored in a Homogenous Time-Resolved Fluorescence (HTRF) assay using 1-[5-({2-[2-(2-{[2-(2,6-dioxopiperidin-3-yl)-1,3-dioxo-2,3-dihydro-1H-isoindol-4-yl]oxy}acetamido)ethoxy]ethyl}carbamoyl)pentyl]-3,3-dimethyl-2-[(1E,3E)-5-[(2E)-1,3,3-trimethyl-5-sulfo-2,3-dihydro-1H-indol-2-ylidene]penta-1,3-dien-1-yl]-3H-indol-1-ium-5-sulfonate as a fluorescent probe. Biochemical assays were conducted in Greiner white 384 well HiBase plates (Cat. No 784075-25) in 10 μL total volume. A one pot detection solution of CRBN-DDB1 (2.5 nM), Anti-His Terbium Cryptate Gold (1×, PerkinElmer Cat. #: 61HI2TLB), and Cy5-Thalidomide (100 nM, Tenova Cat.: T52461) was prepared in 20 mM HEPES, 20 mM NaCl, 0.2 mM TCEP, 0.2 mM EDTA, and 0.005% Tween20 was dispensed to each assay plate. Compounds were stored in dry, ambient temperatures at 10 mM. A 10-point, 1:3 dilution series was prepared from 10 mM stock concentrations in Echo-compatible LDV plates. 10 nL of each compound dilution series was dispensed into assays wells using an Echo 650 (Labcyte inc. USA). 10 nL of 10 mM Lenalidomide was transferred into the active-control wells for the assay and 10 nL of DMSO was transferred into the neutral-control wells. The assay was then allowed to incubate for 30 min at ambient temperature after transferring compound. Plate measurements were taken on a Pherastar FSX (BMG Labtech, Germany) using the HTRF Red filter (Ex. 337 nm, em1:620 nm, em2:665 nm) (Flashes: 50, Integration time: 60-400 us, Z-height: 10 mm, Ratio-multipler: 10,000). The HTRF signal was then subsequently normalized to the neutral and active controls. Analysis and IC50 values were derived using KNIME analytics (KNIME Zurich) transformation and fitting within Collaborative Drug Discovery (Collaborative Drug Discovery USA). Ki was derived from the geometric mean of the IC50 values using the Cheng-Prustoff transformation.

Structure (SMILES) | Dmax (CDK2) | Ki (CRBN-DDB1)
O=C1CCC(N2Cc3ccc(CNC(=O)OCc4cccc(-c5cccnc5)c4)cc3C2=O)C(=O)N1 (centres unmarked) [Compound 15, 3-(pyridin-3-yl)benzyl ((2-(2,6-dioxopiperidin-3-yl)-3-oxoisoindolin-5-yl)methyl)carbamate] | 10 to 50% | ≤ 100 nM
Cc1ncsc1-c1ccc(COC(=O)NCc2ccc3c(c2)C(=O)N(C2CCC(=O)NC2=O)C3)cc1 (centres unmarked) [Compound 52, [4-(4-methyl-1,3-thiazol-5-yl)phenyl]methyl N-{[2-(2,6-dioxopiperidin-3-yl)-3-oxo-2,3-dihydro-1H-isoindol-5-yl]methyl}carbamate] | 10 to 50% | ≤ 100 nM
O=C1CCC(N2Cc3ccc(CNC(=O)OCc4cccc(OCC(F)(F)F)c4)cc3C2=O)C(=O)N1 (centres unmarked) [Compound 54, [3-(2,2,2-trifluoroethoxy)phenyl]methyl N-{[2-(2,6-dioxopiperidin-3-yl)-3-oxo-2,3-dihydro-1H-isoindol-5-yl]methyl}carbamate] | 10 to 50% | 100 to 1000 nM
O=C1CCC(N2Cc3ccc(CNC(=O)OCc4ccc(C(F)(F)F)cc4)cc3C2=O)C(=O)N1 (centres unmarked) [Compound 59, [4-(trifluoromethyl)phenyl]methyl N-{[2-(2,6-dioxopiperidin-3-yl)-3-oxo-2,3-dihydro-1H-isoindol-5-yl]methyl}carbamate] | 10 to 50% | 100 to 1000 nM
CC[C@H](Cc1ccccc1)OC(=O)NCc1ccc2c(c1)C(=O)N(C1CCC(=O)NC1=O)C2 (stereo partly drawn) [Compound 68, (2R)-1-phenylbutan-2-yl N-{[2-(2,6-dioxopiperidin-3-yl)-3-oxo-2,3-dihydro-1H-isoindol-5-yl]methyl}carbamate] | ≤ 10% | 100 to 1000 nM
O=C1CCC(N2Cc3ccc(CNC(=O)OCc4ccc([C@H]5CCC[C@@H]5O)cc4)cc3C2=O)C(=O)N1 (stereo partly drawn) [Compound 19, 4-((1R, 2S)-2-hydroxycyclopentyl) benzyl ((2-(2,6-dioxopiperidin-3-yl)-3-oxoisoindolin-5-yl)methyl)carbamate] | 10 to 50% | 100 to 1000 nM
O=C1CCC(N2Cc3ccc(CNC(=O)OCc4cccc(-c5cccc(F)c5)c4)cc3C2=O)C(=O)N1 (centres unmarked) [Compound 10, (3′-fluoro-[1,1′-biphenyl]-3-yl)methyl ((2-(2,6-dioxopiperidin-3-yl)-3-oxoisoindolin-5-yl)methyl)carbamate] | 50 to 80% | 100 to 1000 nM
Cc1c(COC(=O)NCc2ccc3c(c2)C(=O)N(C2CCC(=O)NC2=O)C3)cccc1-c1ccccc1 (centres unmarked) [Compound 12, (2-methyl-[1,1′-biphenyl]-3-yl)methyl ((2-(2,6-dioxopiperidin-3-yl)-3-oxoisoindolin-5-yl)methyl)carbamate] | 50 to 80% | ≤ 100 nM
CCC(C)(C)c1ccc(COC(=O)NCc2ccc3c(c2)C(=O)N(C2CCC(=O)NC2=O)C3)cc1 (centres unmarked) [Compound 36, [4-(2-methylbutan-2-yl)phenyl]methyl N-{[2-(2,6-dioxopiperidin-3-yl)-3-oxo-2,3-dihydro-1H-isoindol-5-yl]methyl}carbamate] | 10 to 50% | 100 to 1000 nM
O=C1CCC(N2Cc3ccc(CCNC(=O)OCc4ccc(OC5CCOCC5)nc4)cc3C2=O)C(=O)N1 (centres unmarked) [Compound 1, (6-((tetrahydro-2H-pyran-4-yl)oxy)pyridin-3-yl)methyl (2-(2-(2,6-dioxopiperidin-3-yl)-3-oxoisoindolin-5-yl)ethyl)carbamate] | 10 to 50% | 100 to 1000 nM
C#CCOc1ccc(COC(=O)NCc2ccc3c(c2)C(=O)N(C2CCC(=O)NC2=O)C3)cc1 (centres unmarked) [Compound 39, [4-(prop-2-yn-1-yloxy)phenyl]methyl N-{[2-(2,6-dioxopiperidin-3-yl)-3-oxo-2,3-dihydro-1H-isoindol-5-yl]methyl}carbamate] | 10 to 50% | ≤ 100 nM
CSc1ccc(COC(=O)NCc2ccc3c(c2)C(=O)N(C2CCC(=O)NC2=O)C3)cc1Cl (centres unmarked) [Compound 49, [3-chloro-4-(methylsulfanyl)phenyl]methyl N-{[2-(2,6-dioxopiperidin-3-yl)-3-oxo-2,3-dihydro-1H-isoindol-5-yl]methyl}carbamate] | 10 to 50% | ≤ 100 nM
O=C1CCC(N2Cc3ccc(CNC(=O)OCc4ccc(C5(F)COC5)cc4)cc3C2=O)C(=O)N1 (centres unmarked) [Compound 48, [4-(3-fluorooxetan-3-yl)phenyl]methyl N-{[2-(2,6-dioxopiperidin-3-yl)-3-oxo-2,3-dihydro-1H-isoindol-5-yl]methyl}carbamate] | 10 to 50% | ≤ 100 nM
O=C1CCC(N2Cc3ccc(COC(=O)NCc4ccc(OC5CCOCC5)nc4)cc3C2=O)C(=O)N1 (centres unmarked) [Compound 2, (2-(2,6-dioxopiperidin-3-yl)-3-oxoisoindolin-5-yl)methyl((6-((tetrahydro-2H-pyran-4-yl)oxy)pyridin-3-yl)methyl)carbamate] | 10 to 50% | 100 to 1000 nM
O=C1CCC(N2Cc3ccc(CNC(=O)OCc4ccnc(-c5ccc(F)cc5)c4)cc3C2=O)C(=O)N1 (centres unmarked) [Compound 5, (2-(4-fluorophenyl)pyridin-4-yl)methyl((2-(2,6-dioxopiperidin-3-yl)-3-oxoisoindolin-5-yl)methyl)carbamate] | 10 to 50% | 100 to 1000 nM
COc1ccc(COC(=O)NCc2ccc3c(c2)C(=O)N(C2CCC(=O)NC2=O)C3)cc1C(C)C (centres unmarked) [Compound 47, [4-methoxy-3-(propan-2-yl)phenyl]methyl N-{[2-(2,6-dioxopiperidin-3-yl)-3-oxo-2,3-dihydro-1H-isoindol-5-yl]methyl}carbamate] | 10 to 50% | ≤ 100 nM
O=C1CCC(N2Cc3ccc(CNC(=O)OCc4ccc(CN5CCOCC5)cc4)cc3C2=O)C(=O)N1 (centres unmarked) [Compound 55, {4-[(morpholin-4-yl)methyl]phenyl}methyl N-{[2-(2,6-dioxopiperidin-3-yl)-3-oxo-2,3-dihydro-1H-isoindol-5-yl]methyl}carbamate] | ≤ 10% | ≤ 100 nM
O=C1CCC(N2Cc3ccc(CNC(=O)OCCCc4ccccc4)cc3C2=O)C(=O)N1 (centres unmarked) [Compound 23, 3-phenylpropyl N-{[2-(2,6-dioxopiperidin-3-yl)-3-oxo-2,3-dihydro-1H-isoindol-5-yl]methyl}carbamate] | 10 to 50% | 100 to 1000 nM
O=C1CCC(N2Cc3c(Cl)cc(CNc4nnc(-c5ccc(OC(F)(F)F)cc5)o4)cc3C2=O)C(=O)N1 (centres unmarked) [Compound 73, 3-(4-chloro-1-oxo-6-(((5-(4-(trifluoromethoxy)phenyl)-1,3,4-oxadiazol-2-yl)amino)methyl)isoindolin-2-yl)piperidine-2,6-dione] | 50 to 80% | ≤ 100 nM
O=C1CCC(N2Cc3ccc(CNc4nnc(-c5ccc(OC(F)(F)F)cc5)o4)cc3C2=O)C(=O)N1 (centres unmarked) [Compound 71, 3-(1-oxo-6-(((5-(4-(trifluoromethoxy)phenyl)-1,3,4-oxadiazol-2-yl)amino)methyl)isoindolin-2-yl)piperidine-2,6-dione] | 50 to 80% | 100 to 1000 nM
O=C1CCC(N2Cc3ccc(CNC(=O)OCc4ccc(OC(F)(F)F)cc4)cc3C2=O)C(=O)N1 (centres unmarked) [Compound 69, 4-(trifluoromethoxy)benzyl ((2-(2,6-dioxopiperidin-3-yl)-3-oxoisoindolin-5-yl)methyl)carbamate] | 10 to 50% | 100 to 1000 nM
CC(NC(=O)OCc1ccc(OC2CCOCC2)nc1)c1ccc2c(c1)C(=O)N(C1CCC(=O)NC1=O)C2 (centres unmarked) [Compound 16, (6-((tetrahydro-2H-pyran-4-yl)oxy)pyridin-3-yl)methyl (1-(2-(2,6-dioxopiperidin-3-yl)-3-oxoisoindolin-5-yl)ethyl)carbamate] | 10 to 50% | 100 to 1000 nM

From patent US20240299559A1, “COMPOUNDS THAT MEDIATE PROTEIN DEGRADATION AND METHODS OF USE THEREOF” (Monte Rosa Therapeutics, Inc., priority 2021, published 2024)
